Values of other authors as cited in patent EP3072529B1, “COMPOSITION COMPRISING VEMURAFENIB AND HPMC-AS” (ratiopharm GmbH, priority 2015, dated 2016).

Conditions: reported

## CCCS(=O)(=O)Nc1ccc(F)c(C(=O)c2c[nH]c3ncc(-c4ccc(Cl)cc4)cc23)c1F [Vemurafenib base, propane-1-sulfonic acid {3-[5-(4-chlorophenyl)-1H-pyrrolo[2,3-b]pyridine-3-carbonyl]-2,4-difluorophenyl}-amide]
  solubility in aqueous and physiological solvents: practically insoluble
